# Patent KR20060104555A, “사이클로펜타디온 유도체를 포함하는 항암 조성물” (한국생명공학연구원, priority 2005, dated 2006)
# Assays:
# [1] = target: T1, farnesyl transferase (파네실 전달효소) (Rattus norvegicus, UniProt Q02293+Q04631); assay: Farnesyl transferase inhibition, SPA with 3H-FPP and biotin-lamin B peptide; type: biochemical, rat (Sprague Dawley); settings: 50% inhibitory concentration; room temperature, 30 min
# T1 construct: Q 세파로즈 고속 칼럼(Q Sepharose Fast Flow column)을 이용하여 부분 정제한 것을 사용하였다; from tissue; host or cells: rat (Sprague Dawley, male) brain homogenate, partially purified on Q Sepharose Fast Flow
# [2] = Solubility; type: physicochemical
# [3] = system: colorectal cancer cells HCA-7 (대장암세포 HCA-7); assay: WST-1 growth inhibition, HCA-7; type: cell-based; settings: Homo sapiens, HCA-7, 48 h
# [4] = system: colorectal cancer cells SW620 (대장암세포 SW620); assay: WST-1 growth inhibition, SW620; type: cell-based; settings: Homo sapiens, SW-620, SW620, 48 h
# [5] = system: lung cancer cells NCI-H23 (폐암세포 NCI-H23); assay: WST-1 growth inhibition, NCI-H23; type: cell-based; settings: Homo sapiens, NCI-H23, 48 h
# [6] = system: colorectal cancer cells HCT116 (대장암세포 HCT116); assay: WST-1 growth inhibition, HCT116; type: cell-based; settings: Homo sapiens, HCT-116, HCT116, 48 h
# [7] = system: lung cancer cells A549 (폐암세포 A549); assay: WST-1 growth inhibition, A549; type: cell-based; settings: Homo sapiens, A549, 48 h
# [8] = system: breast cancer cells MDA-MB-231 (유방암세포 MDA-MB-231); assay: WST-1 growth inhibition, MDA-MB-231; type: cell-based; settings: Homo sapiens, MDA-MB-231, 48 h
# [9] = system: HEK293 (신장암세포 HEK293); assay: WST-1 growth inhibition, HEK293; type: cell-based; settings: Homo sapiens, HEK293, 48 h
# [10] = system: prostate cancer cells DU145 (전립선암세포 DU145); assay: WST-1 growth inhibition, DU145; type: cell-based; settings: Homo sapiens, DU-145, DU145, 48 h
SMILES,IC50 [1],"solubility ([2]; Alcohols, DMSO)","solubility ([2]; Hexane, H2O)",GI50 [3],GI50 [4],GI50 [5],GI50 [6],GI50 [7],GI50 [8],GI50 [9],GI50 [10]
"COC1=C(OC)C(=O)C(=C(O)/C=C/c2ccccc2)C1=O [Linderone, linderone]",33.3 µM,가용성,불용성,–,–,–,–,–,–,–,–
"COC(/C=C/c1ccccc1)=C1C(=O)C(OC)=C(OC)C1=O [Methyllinderone, methyllinderone]",43.3 µM,가용성,불용성,0.52 µg/mL,3.5 µg/mL,1.1 µg/mL,0.45 µg/mL,3.2 µg/mL,3.8 µg/mL,3 µg/mL,–
"COC1=CC(=O)C(=C(O)/C=C/c2ccccc2)C1=O [Lucidone, lucidone]",125 µM,가용성,불용성,–,–,–,–,–,–,–,–
"COC1=CC(=O)C(=C(/C=C/c2ccccc2)OC)C1=O [Methyllucidone, methyllucidone]",40.7 µM,가용성,불용성,0.39 µg/mL,2 µg/mL,1 µg/mL,0.26 µg/mL,15 µg/mL,3.5 µg/mL,4.8 µg/mL,1.8 µg/mL
